Data reported in PubChem BioAssay AID1259411 (Chemical Carcinogenesis Research Information System (CCRIS), 2018).
Active and inactive are the calls of the source. How the calls were made is not given here.

Tested on: rodent carcinogenicity bioassays, tumor incidence
Assay: CCRIS carcinogenicity studies
Details: Dose: 0, Dose: 0
How it was run: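 NCI-built, expert-reviewed records of carcinogenicity and related test outcomes (mutagenicity, tumor promotion/inhibition) compiled from published and report sources, historical span 1985-2011, not updated.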

For CC(Cl)Cl, the carcinogen call (Species: MOUSE, Strain/Sex: B6C3F1/FEMALE, Route: GAVAGE, 1665, 3331 MG/KG 5/WK FOR 78 WK (STUDY DURATION: 91 WK), 1665, 3331 MG/KG 5/WK FOR 78 WK (STUDY DURATION: 91 WK), Tumor Site: Type of Lesion: UTERUS: ENDOMETRIAL STROMAL POLYP) was “equivocal”, the carcinogen call (Species: MOUSE, Strain/Sex: B6C3F1/MALE, Route: GAVAGE, 1,442, 2,885 MG/KG 5/WK FOR 78 WK (STUDY DURATION: 91 WK), 1,442, 2,885 MG/KG 5/WK FOR 78 WK (STUDY DURATION: 91 WK)) was “inactive; negative” and the carcinogen call (Species: RAT, Strain/Sex: OSBORNE-MENDEL/FEMALE, Route: GAVAGE, 475, 950 MG/KG 5/WK FOR 78 WK (STUDY DURATION: 111 WK), 475, 950 MG/KG 5/WK FOR 78 WK (STUDY DURATION: 111 WK), Tumor Site: Type of Lesion: MAMMARY GLAND: ADENOCARCINOMA, LUNG: HEMANGIOSARCOMA, SPLEEN: HEMANGIOSARCOMA, Tumor Site: Type of Lesion: MAMMARY GLAND: ADENOCARCINOMA, LUNG: HEMANGIOSARCOMA, SPLEEN: HEMANGIOSARCOMA) was “equivocal”. The carcinogen call (Species: RAT, Strain/Sex: OSBORNE-MENDEL/MALE, Route: GAVAGE, 382, 764 MG/KG 5/WK FOR 78 WK (STUDY DURATION: 111 WK), 382, 764 MG/KG 5/WK FOR 78 WK (STUDY DURATION: 111 WK)) was “inactive; negative”.

With Cc1ccc(N=CN(C)C=Nc2ccc(C)cc2C)c(C)c1 the carcinogen call (Species: Mouse, Strain/Sex: B6C3F1/Female, Route: Oral (diet), 25, 100, 400 ppm in feed for 104 wks, 25, 100, 400 ppm in feed for 104 wks, Tumor Site: Type of Lesion: Liver: Hepatocellular adenoma/carcinoma (5/80, 1/61, 3/62, 24/56)) was “active; positive (at highest dose)”, the carcinogen call (Species: Mouse, Strain/Sex: B6C3F1/Male, Route: Oral (diet), 25, 100, 400 ppm in feed for 104 wks, 25, 100, 400 ppm in feed for 104 wks) was “inactive; negative” and the carcinogen call (Species: Rat, Strain/Sex: Wistar/Female, Route: Oral (diet), 15, 50, 200 ppm in feed for 104 wks, 15, 50, 200 ppm in feed for 104 wks) was “inactive; negative; purity 97.8 and 99.8%”. The carcinogen call (Species: Rat, Strain/Sex: Wistar/Male, Route: Oral (diet), 15, 50, 200 ppm in feed for 104 wks, 15, 50, 200 ppm in feed for 104 wks) was “inactive; negative; purity 97.8 and 99.8%”.

O[C@H]1C=Cc2nc3c(ccc4ccccc43)cc2[C@@H]1O was tested, and the carcinogen call (Species: MOUSE, Strain/Sex: SWISS/FEMALE, Route: INTRAPERITONEAL, 1.05 UMOL GIVEN AS 150 NMOL IN 5 µL DMSO WITHIN 24 HR OF BIRTH, 300 NMOL IN 10 µL DMSO ON D 8 OF LIFE, AND 600 NMOL I, Tumor Site: Type of Lesion: LUNG: ADENOMA) was “active; positive” and the carcinogen call (Species: MOUSE, Strain/Sex: SWISS/MALE, Route: INTRAPERITONEAL, 1.05 UMOL GIVEN AS 150 NMOL IN 5 µL DMSO WITHIN 24 HR OF BIRTH, 300 NMOL IN 10 µL DMSO ON D 8 OF LIFE, AND 600 NMOL I, Tumor Site: Type of Lesion: LUNG: ADENOMA) was “active; positive”.

CC[C@H](C)[C@H]1O[C@]2(C=C[C@@H]1C)C[C@@H]1C[C@@H](C/C=C(\C)[C@@H](O[C@H]3C[C@H](OC)[C@@H](O[C@H]4C[C@H](OC)[C@@H](NC)[C@H](C)O4)[C@H](C)O3)[C@@H](C)/C=C/C=C3\CO[C@@H]4[C@H](O)C(C)=C[C@@H](C(=O)O1)[C@]34O)O2 was tested, and the carcinogen call (Species: Mouse, Strain/Sex: Strain not specified/Female (50/Group), Route: Oral, 0.5, 2.5, 12.5 (lowered to 7.5 at wk 48) mg/kg/day in the diet for 79 wk, study duration 79 wk, 0.5, 2.5, 12.5 (lowered to 7.5 at wk 48) mg/kg/day in the diet for 79 wk, study duration 79 wk) was “inactive; negative”, the carcinogen call (Species: Mouse, Strain/Sex: Strain not specified/Male (50/Group), Route: Oral, 0.5, 2.5, 12.5 (lowered to 7.5 at wk 9 and to 5 at wk 31) mg/kg/day in the diet for 79 wk, study duration 79 wk, 0.5, 2.5, 12.5 (lowered to 7.5 at wk 9 and to 5 at wk 31) mg/kg/day in the diet for 79 wk, study duration 79 wk) was “inactive; negative” and the carcinogen call (Species: Rat, Strain/Sex: Strain not specified/Female (65/Group), Route: Oral, 0.25, 1, 5 (lowered to 2.5 at wk 10) mg/kg/day in the diet for 105 wk, study duration 105 wk, 0.25, 1, 5 (lowered to 2.5 at wk 10) mg/kg/day in the diet for 105 wk, study duration 105 wk) was “inactive; negative”. The carcinogen call (Species: Rat, Strain/Sex: Strain not specified/Male (65/Group), Route: Oral, 0.25, 1, 5 (lowered to 2.5 at wk 6) mg/kg/day in the diet for 105 wk, study duration 105 wk, 0.25, 1, 5 (lowered to 2.5 at wk 6) mg/kg/day in the diet for 105 wk, study duration 105 wk) was “inactive; negative”.

C=C(C)CCl was tested, and the carcinogen call (Species: MOUSE, Strain/Sex: B6C3F1/FEMALE, Route: GAVAGE, 100, 200 MG/KG IN CORN OIL 5 D/WK FOR 103 WK (STUDY DURATION: 2 YR), 100, 200 MG/KG IN CORN OIL 5 D/WK FOR 103 WK (STUDY DURATION: 2 YR), Tumor Site: Type of Lesion: FORESTOMACH: EPITHELIAL HYPERPLASIA, SQUAMOUS CELL PAPILLOMA) was “active; positive”, the carcinogen call (Species: MOUSE, Strain/Sex: B6C3F1/FEMALE, Route: GAVAGE, 100, 200 MG/KG IN CORN OIL 5 D/WK FOR 103 WK, 100, 200 MG/KG IN CORN OIL 5 D/WK FOR 103 WK, Tumor Site: Type of Lesion: FORESTOMACH: SQUAMOUS CELL PAPILLOMA, SQUAMOUS CELL PAPILLOMA OR CARCINOMA) was “active; positive” and the carcinogen call (Species: MOUSE, Strain/Sex: B6C3F1/MALE, Route: GAVAGE, 100, 200 MG/KG IN CORN OIL 5 D/WK FOR 103 WK (STUDY DURATION: 2 YR), 100, 200 MG/KG IN CORN OIL 5 D/WK FOR 103 WK (STUDY DURATION: 2 YR), Tumor Site: Type of Lesion: FORESTOMACH: EPITHELIAL HYPERPLASIA, SQUAMOUS CELL PAPILLOMA, SQUAMOUS CELL CARCINOMA) was “active; positive”. For the same molecule, the carcinogen call (Species: MOUSE, Strain/Sex: B6C3F1/MALE, Route: GAVAGE, 100, 200 MG/KG IN CORN OIL 5 D/WK FOR 103 WK, 100, 200 MG/KG IN CORN OIL 5 D/WK FOR 103 WK, Tumor Site: Type of Lesion: FORESTOMACH: SQUAMOUS CELL PAPILLOMA, SQUAMOUS CELL CARCINOMA) was “active; positive”, the carcinogen call (Species: MOUSE, Strain/Sex: BDF1/FEMALE, Route: INHALATION, 50, 100, 200 PPM 6 HR/D 5 D/WK FOR 104 WK (STUDY DURATION: 104 WK), 50, 100, 200 PPM 6 HR/D 5 D/WK FOR 104 WK (STUDY DURATION: 104 WK), Tumor Site: Type of Lesion: HARDERIAN GLAND: ADENOMA) was “active; positive” and the carcinogen call (Species: MOUSE, Strain/Sex: BDF1/MALE, Route: INHALATION, 50, 100, 200 PPM 6 HR/D 5 D/WK FOR 104 WK (STUDY DURATION: 104 WK), 50, 100, 200 PPM 6 HR/D 5 D/WK FOR 104 WK (STUDY DURATION: 104 WK)) was “inactive; negative”. For the same molecule, the carcinogen call (Species: RAT, Strain/Sex: F344/FEMALE, Route: GAVAGE, 75, 150 MG/KG IN CORN OIL 5 D/WK FOR 103 WK (STUDY DURATION: 2 YR), 75, 150 MG/KG IN CORN OIL 5 D/WK FOR 103 WK (STUDY DURATION: 2 YR), Tumor Site: Type of Lesion: FORESTOMACH: BASAL CELL HYPERPLASIA, SQUAMOUS CELL PAPILLOMA) was “active; positive”, the carcinogen call (Species: RAT, Strain/Sex: F344/FEMALE, Route: GAVAGE, 75, 150 MG/KG IN CORN OIL 5 D/WK FOR 103 WK, 75, 150 MG/KG IN CORN OIL 5 D/WK FOR 103 WK, Tumor Site: Type of Lesion: FORESTOMACH: PAPILLOMA) was “active; positive” and the carcinogen call (Species: RAT, Strain/Sex: F344/MALE, Route: GAVAGE, 75, 150 MG/KG IN CORN OIL 5 D/WK FOR 103 WK (STUDY DURATION: 2 YR), 75, 150 MG/KG IN CORN OIL 5 D/WK FOR 103 WK (STUDY DURATION: 2 YR), Tumor Site: Type of Lesion: FORESTOMACH: BASAL CELL OR EPITHELIAL HYPERPLASIA, SQUAMOUS CELL PAPILLOMA) was “active; positive”. The carcinogen call (Species: RAT, Strain/Sex: F344/MALE, Route: GAVAGE, 75, 150 MG/KG IN CORN OIL 5 D/WK FOR 103 WK, 75, 150 MG/KG IN CORN OIL 5 D/WK FOR 103 WK, Tumor Site: Type of Lesion: FORESTOMACH: PAPILLOMA) was “active; positive”.
